We go through 2 compounds from patent US6468505B1, “Technique to monitor drug delivery noninvasively in vivo” (Philipp Lang, priority 1997, dated 2002).

Data set [1] can be described thus: NMR relaxometry of GdDTPA-BMA containing liposomes in vitro (inversion recovery T1). The class given is physicochemical. The following applies: GdDTPA-BMA in solution of solubilized liposome (0.1% C12E8), 1 mM Gd.
Method: NMR relaxometry and magnetic resonance (MR) imaging were performed using a 2.0 Tesla small bore magnet (Bruker Omega 2.0T System, Bruker Instruments, Inc., Fremont, Calif.) equipped with actively shielded gradients (Accustar™ S-150, Bruker Instruments, Inc., Fremont, Calif.) capable of delivering field gradients up to 20 G/cm along each axis (X, Y and Z).
T1 relaxation rates of various liposome suspensions with a mean diameter of 110 nm were determined by standard inversion recovery measurment. The content of GdDTPA-BMA in liposome suspensions was estimated from NMR relaxometry. An inversion recovery NMR spectroscopy pulse sequence was performed in which a nonselective composite inversion pulse (90x-180y-90x) was applied, followed by a gradient spoiler pulse to eliminate residual coherent in-plane magnetization. After a variable delay time (TI), z-magnetization was sampled by a nonselective 90° radiofrequency pulse and the signal was recorded. The inversion recovery signal profile was obtained from at least forty such measurements in which the TI delay was incremented from 20 ms to a value that was at least 3-fold greater than the T1.
Mz(TI)/M∞=1−k exp(TI/T1) Eq. 1,
in which Mz(TI) is the signal intensity measured at a particular value of TI, M∞ is the fully relaxed signal intensity, and k has the value of 2.0 if the inversion pulse is exactly 180°. […]
For data set [2] the following is noted: unencapsulated, free chelate; cited from earlier work.

As to `CNC(=O)CN(CCN(CCN(CC(=O)[O-])CC(=O)NC)CC(=O)[O-])CC(=O)[O-].[Gd+3]` [Gd-DTPA-BMA, Gadolinium-diethylene-triamine-pentaacetic-acid-bis-methylamide], the “Relaxivity=ΔR1/[Gd]” value in data set [1] stood at 4.07 s⁻¹ mM⁻¹. Besides, in data set [2], the biologic half-life result is given as “approximately 30 min”. Take `O=C([O-])CN(CCN(CC(=O)[O-])CC(=O)O)CCN(CC(=O)[O-])CC(=O)O.[Gd+3]` [Gd-DTPA, gadolinium-diethylene triamine pentaacetic acid]: the biologic half-life entry in data set [2] is reported as “approximately 30 min”.
